Data on 14 compounds can be found in patent EP4703358A1, “BENZO SIX-MEMBERED HETEROCYCLIC GSPT1 PROTEIN DEGRADATION AGENT AND USE THEREOF” (China Pharmaceutical University, priority 2023, dated 2024).

One data set addresses T1, GSPT1 protein (Homo sapiens, UniProt P15170+Q96SW2).
T1 construct: host or cells: KG-1 cells
Briefly: Degradation of GSPT1 in KG-1 cells (Western blot). It counts as cell-based. The arrangement: percent GSPT1 degradation: dose or concentration left out as unconfirmed. Particulars: for percent GSPT1 degradation at 0.2 µM: KG-1 cells, compound concentration 200 nM, 4 hours. How it is done:
KG-1 cells (ATCC) were grown in an IMDM culture medium (containing 20% FBS). After centrifugation and counting, the cell concentration was adjusted. The cells were plated onto 6-well plates at 10^6 cells/well, with 1350 µL per well. 150 µL of DMSO and the test compounds of the present disclosure (compound concentration: 200 nM) were added. The plates were incubated in an incubator at 37 °C with 5% CO2 for 4 hours. The cells were centrifuged, and the culture medium was discarded. PBS was added to wash the cells and then discarded. Whole cell lysates were prepared using a protease inhibitor cocktail (100×, Fude Biological), a protein phosphatase inhibitor cocktail (100×, Fude Biological), SuperNuclease (Beyotime), and a high-intensity RIPA lysis buffer (Thermo Fisher) and placed on ice for 30 minutes. After centrifugation, the cell debris precipitates were discarded, and the whole cell lysate supernatants were collected and transferred to new centrifuge tubes. After a BCA protein assay, samples were prepared using a 5× loading buffer (Thermo Fisher). The samples were subjected to protein electrophoresis separation in a 4-20% precast gel (SDS-PAGE gel), transferred to a PVDF membrane, then blocked with 5% NFDM/TBST at room temperature for 1 hour, incubated overnight with primary antibodies at 4 °C, and incubated with a secondary antibody at room temperature for 2 hours the next day. Signals were detected using a MINICHEMITM imaging system.
Primary antibodies: • Anti-GSPT1: Abcam ab234433 • Anti-beta actin: Fude Biological FD0060
Secondary antibody: Anti-rabbit peroxidase-linked secondary antibody: Fude Biological FDG007
The degradation effects of the compounds on GSPT1 protein are shown in Table 1, where A represents a GSPT1 protein degradation percentage of no less than 80%, B represents a degradation percentage of less than 80% but no less than 50%, C represents a degradation percentage of less than 50% but no less than 25%, and D represents a degradation percentage of less than 25%. Table 1. The degradation of GSPT1 protein by compounds

A further data set has as its system KG-1 cells. Briefly: Antiproliferative activity against KG-1 cells (CCK8). It counts as cell-based. Particulars: Homo sapiens, 72 hours. How it is done: KG-1 cells in the logarithmic growth phase were diluted in a culture medium (RPMI + 10% FBS) and plated onto 96-well plates at 5000 cells/well, and the plates were incubated in an incubator at 37 °C with 5% CO2 for 24 hours. 10 mM stock solutions of the test compounds of the present disclosure in DMSO were prepared and diluted with the culture medium to set 9 concentration gradients. Three replicate wells were set for each concentration. After compound addition, the plates were incubated in an incubator at 37 °C with 5% CO2 for 72 hours. The cell proliferation was assessed using the CCK8 method. The cell growth inhibition IC50 values of the compounds were determined using an enzyme labeling method. The IC50 values were calculated using GraphPad Prism 7 software.
The antiproliferative activity of the compounds against KG-1 cells is shown in Table 2, where A represents IC50 < 1 nM, B represents 1 ≤ IC50 < 10 nM, C represents 10 nM ≤ IC50 < 100 nM, D represents 100 nM ≤ IC50 < 1000 nM, and E represents IC50 ≥ 1000 nM. Table 2. The antiproliferative activity of compounds against KG-1 cells

Another data set deals with U937. Briefly: Antiproliferative activity against tumor cells (CCK8), U937. It counts as cell-based. Particulars: Homo sapiens, U-937, 72 hours. How it is done: (§1) U937, MOLM-13, and MV4-11 cells (ATCC) in the logarithmic growth phase were separately diluted in a culture medium and plated onto 96-well plates at 5000 cells/well, and the plates were incubated in an incubator at 37 °C with 5% CO2 for 24 hours. 10 mM stock solutions of the compounds in DMSO were prepared and diluted with the culture medium to set 9 concentration gradients. Three replicate wells were set for each concentration. After compound addition, the plates were incubated in an incubator at 37 °C with 5% CO2 for 72 hours. The cell proliferation was assessed using the CCK8 method. The cell growth inhibition IC50 values of the compounds were determined using an enzyme labeling method. The IC50 values were calculated using GraphPad Prism 7 software.
(§2) The antiproliferative activity of the compounds against the tumor cells is shown in Table 3, where A represents IC50 < 1 nM, B represents 1 ≤ IC50 < 10 nM, C represents 10 nM ≤ IC50 < 100 nM, D represents 100 nM ≤ IC50 < 1000 nM, and E represents IC50 ≥ 1000 nM. Table 3. The antiproliferative activity of compounds against tumor cells

For another data set, the system named is MOLM-13. Description: Antiproliferative activity against tumor cells (CCK8), MOLM-13. Particulars: Homo sapiens, MOLM-13 cells, 72 hours. The data set is classed as cell-based. The method, then: as §1, §2
In another data set the test system is MV4-11. Briefly: Antiproliferative activity against tumor cells (CCK8), MV4-11. Particulars: Homo sapiens, MV4-11 cells, 72 hours. The data set is classed as cell-based. The method, then: as §1, §2
A short description of data set [1]: Metabolic stability in in vitro rat liver microsomes. Particulars: rat.
Method: 10 mM stock solutions of the test compounds in DMSO were prepared, diluted with acetonitrile and then with PBS, and vortexed, with the DMSO content controlled at 0.1%. The dilute working solutions (10 µL) were incubated with 65 µL of a liver microsome system (30 µL of 100 mM PBS, 25 µL of 20 mM MgCl2, and 10 µL of 5 mg/mL RLMs) and preheated at 37 °C for 5 min. 25 µL of 4 mM NADPH was added to start a reaction. Samples were taken at different time points (0 min, 5 min, 15 min, 30 min, 60 min, and 120 min), and an acetonitrile solution containing an internal standard was added to stop the reaction. After vortexing and centrifugation, the supernatants were collected and analyzed by LC-MS/MS, and the half-lives and clearance rates were calculated.
A short description of data set [2]: In vivo pharmacokinetic study in rats. Particulars: rat.
Method: Sample collection and preparation: After SPF SD rats (male, 210-230 g, 42-48 days, RILD Liver) in a good growth state were dosed intravenously at 2 mg/kg and orally at 10 mg/kg, blood samples were collected via the orbit at different blood collection time points and transferred to centrifuge tubes containing an anticoagulant; the intravenous blood collection time points were 0.08 hours, 0.25 hours, 0.5 hours, 1 hour, 2 hours, 4 hours, 6 hours, 8 hours, and 24 hours, and the oral blood collection time points were 0.25 hours, 0.5 hours, 1 hour, 2 hours, 4 hours, 6 hours, 8 hours, and 24 hours. The blood samples were immediately centrifuged at 4 °C and 8000 rpm for 10 minutes, and the plasma was collected and stored in an ultra-low-temperature freezer at -80 °C until it was analyzed by LC-MS/MS. Pharmacokinetic data analysis: Pharmacokinetic parameters of the compounds were calculated using pharmacokinetic software in a non-compartmental model. The peak plasma concentration (Cmax) and the time to reach the peak plasma concentration (Tmax) were taken as observation values. Parameters such as the half-life T1/2, the areas under the plasma concentration-time curve AUClast and AUCinf, the apparent volume of distribution Vss, and the clearance rate CL were determined through regression analysis of the linear terminal portion of the logarithmic plasma concentration-time curve and the linear trapezoidal rule.

T1 sequence (P15170 whole entry): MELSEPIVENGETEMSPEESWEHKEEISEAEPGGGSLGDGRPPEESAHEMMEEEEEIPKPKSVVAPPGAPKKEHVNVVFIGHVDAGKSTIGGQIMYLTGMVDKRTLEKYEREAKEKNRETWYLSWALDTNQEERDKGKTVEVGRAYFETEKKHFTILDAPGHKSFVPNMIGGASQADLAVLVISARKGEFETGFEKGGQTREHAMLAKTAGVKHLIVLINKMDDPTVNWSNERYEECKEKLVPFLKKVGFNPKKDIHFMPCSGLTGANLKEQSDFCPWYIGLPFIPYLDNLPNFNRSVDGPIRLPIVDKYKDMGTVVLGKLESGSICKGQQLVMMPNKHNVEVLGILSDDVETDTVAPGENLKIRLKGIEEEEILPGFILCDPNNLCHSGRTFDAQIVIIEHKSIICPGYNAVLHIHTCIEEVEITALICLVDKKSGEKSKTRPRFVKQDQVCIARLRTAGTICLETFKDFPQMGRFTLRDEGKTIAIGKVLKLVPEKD
T1 sequence (Q96SW2 whole entry): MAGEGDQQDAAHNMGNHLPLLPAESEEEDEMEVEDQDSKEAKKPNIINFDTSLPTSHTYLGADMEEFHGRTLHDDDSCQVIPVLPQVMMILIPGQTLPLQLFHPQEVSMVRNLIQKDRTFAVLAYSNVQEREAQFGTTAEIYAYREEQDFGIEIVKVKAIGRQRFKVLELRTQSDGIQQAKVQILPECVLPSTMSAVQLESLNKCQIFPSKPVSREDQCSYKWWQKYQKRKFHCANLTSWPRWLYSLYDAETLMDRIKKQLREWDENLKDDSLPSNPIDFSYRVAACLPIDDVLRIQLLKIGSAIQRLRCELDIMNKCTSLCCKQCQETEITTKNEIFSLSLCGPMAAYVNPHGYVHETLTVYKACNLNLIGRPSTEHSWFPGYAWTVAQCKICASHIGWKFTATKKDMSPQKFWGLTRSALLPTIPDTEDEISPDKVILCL
T1 sequence (Q16531 whole entry partner): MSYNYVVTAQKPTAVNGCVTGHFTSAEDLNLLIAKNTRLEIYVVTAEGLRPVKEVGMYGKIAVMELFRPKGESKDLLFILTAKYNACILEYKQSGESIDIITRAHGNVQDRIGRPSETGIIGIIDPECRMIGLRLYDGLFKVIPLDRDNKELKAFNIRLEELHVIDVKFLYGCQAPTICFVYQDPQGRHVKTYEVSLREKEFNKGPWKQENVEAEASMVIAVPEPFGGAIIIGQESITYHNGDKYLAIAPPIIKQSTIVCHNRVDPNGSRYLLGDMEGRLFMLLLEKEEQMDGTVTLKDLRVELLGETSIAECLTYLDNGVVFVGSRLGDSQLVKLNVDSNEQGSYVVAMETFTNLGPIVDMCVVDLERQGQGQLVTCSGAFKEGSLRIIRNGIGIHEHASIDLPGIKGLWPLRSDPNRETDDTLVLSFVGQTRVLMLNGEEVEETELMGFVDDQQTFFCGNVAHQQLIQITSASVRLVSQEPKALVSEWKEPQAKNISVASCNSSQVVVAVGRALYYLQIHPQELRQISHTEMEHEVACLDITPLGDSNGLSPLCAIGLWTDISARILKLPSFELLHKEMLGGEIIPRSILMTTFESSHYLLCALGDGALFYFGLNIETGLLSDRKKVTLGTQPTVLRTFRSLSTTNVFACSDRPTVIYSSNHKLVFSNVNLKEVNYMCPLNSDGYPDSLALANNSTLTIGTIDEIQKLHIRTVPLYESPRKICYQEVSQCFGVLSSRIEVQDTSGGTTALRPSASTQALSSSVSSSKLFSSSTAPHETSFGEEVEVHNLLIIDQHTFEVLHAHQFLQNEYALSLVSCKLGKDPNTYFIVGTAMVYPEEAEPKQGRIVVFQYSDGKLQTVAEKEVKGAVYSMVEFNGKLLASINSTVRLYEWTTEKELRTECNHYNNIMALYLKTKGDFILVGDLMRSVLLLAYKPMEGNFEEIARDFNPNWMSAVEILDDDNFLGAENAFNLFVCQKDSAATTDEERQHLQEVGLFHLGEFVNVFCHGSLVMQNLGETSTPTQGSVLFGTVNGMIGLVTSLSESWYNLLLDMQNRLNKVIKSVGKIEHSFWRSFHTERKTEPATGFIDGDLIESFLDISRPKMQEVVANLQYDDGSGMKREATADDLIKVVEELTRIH

On to `O=C1CCC(N2Cc3cc(CNC(=O)C4COc5ccccc5C4)ccc3C2=O)C(=O)N1` (stereo not shown) [Compound B-1, N-((2-(2,6-Dioxopiperidin-3-yl)-1-oxoisoindolin-5-yl)methyl)chromane-3-carboxamide], for which the percent GSPT1 degradation at 0.2 µM on GSPT1 protein was > 80%. In addition, the IC50 fell in the range of 10 to 100 nM in the data set with KG-1 cells, 1 to 10 nM with U937, 1 to 10 nM in the data set with MOLM-13 and 1 to 10 nM in the data set with MV4-11. This compound returned a half-life in data set [1] of 0.735 h. The same compound registered a microsomal CLint in data set [1] of 31.4 µL/min/mg.

Consider `O=C1CCC(N2Cc3cc(CNC(=O)C4=Cc5ccccc5OC4)ccc3C2=O)C(=O)N1` (stereo not shown) [Compound A-1, N-((2-(2,6-Dioxopiperidin-3-yl)-1-oxoisoindolin-5-yl)methyl)-2H-chromene-3-carboxamide], for which, at GSPT1 protein, the percent GSPT1 degradation at 0.2 µM was > 80%. This compound gave a half-inhibitory concentration (IC50) in the data set on KG-1 cells of 10 to 100 nM. For the same compound, the IC50 in the data set on U937 was in the range of 1 to 10 nM. The compound also came in with a half-inhibitory concentration (IC50) with MOLM-13 of 10 to 100 nM. This compound gave an IC50 in the data set on MV4-11 of 10 to 100 nM. Also, in data set [2] (male, SD, plasma, iv, 2 mg/kg), the AUC(0-inf) was 1920 ± 267 ng·h/mL, the AUC(0-t) is 1900 ± 270 ng·h/mL, the C0 was 3840 ± 226 ng/mL and the Vd was 0.92 ± 0.07 L/kg. In data set [2] (male, SD, plasma, iv, 2 mg/kg), the clearance was determined as 17.6 ± 2.6 mL/min/kg and the half-life was 1.38 ± 0.14 h. Besides, in data set [2] (male, SD, plasma, po, 10 mg/kg), the AUC(0-inf) came to 1850 ± 330 ng·h/mL, the AUC(0-t) is 1810 ± 343 ng·h/mL, the Cmax was 619 ± 42 ng/mL and the Tmax turned out to be 0.75 ± 0.43 h. This compound had a half-life in data set [2] (male, SD, plasma, po, 10 mg/kg) of 2.69 ± 1.13 h. In data set [2] (PO 10mg/kg), this compound returned an F of 19.3±3.4%. In addition, in data set [1], the half-life came out at 6.17 h and the microsomal CLint was determined as 3.75 µL/min/mg.

`O=C1CCC(N2Cc3cc(CNC(=O)C4COc5ccc(OC(F)(F)F)cc5C4)ccc3C2=O)C(=O)N1` (stereo not shown) [Compound B-4, N-((2-(2,6-Dioxopiperidin-3-yl)-1-oxoisoindolin-5-yl)methyl)-6-(trifluoromethoxy)chromane-3-carboxamide]: the percent GSPT1 degradation at 0.2 µM at GSPT1 protein is > 80%. Moreover, the IC50 is < 1 nM in the data set on KG-1 cells, 1 to 10 nM in the data set on U937, 1 to 10 nM in the data set on MOLM-13 and < 1 nM in the data set with MV4-11.

Take `O=C1CCC(N2Cc3cc(CNC(=O)C4CCc5ccccc5C4)ccc3C2=O)C(=O)N1` [Compound D-1, N-((2-(2,6-Dioxopiperidin-3-yl)-1-oxoisoindolin-5-yl)methyl)-1,2,3,4-tetrahydronaphthalene-2-carboxamide]: on GSPT1 protein, the percent GSPT1 degradation at 0.2 µM is < 25%. Also, the IC50 in the data set with KG-1 cells, with U937, with MOLM-13 and with MV4-11 was ≥ 1000 nM each time.

With `O=C1CCC(N2Cc3cc(CNC(=O)C4=Cc5cc(F)ccc5OC4)ccc3C2=O)C(=O)N1` (stereo not shown) [Compound A-3, N-((2-(2,6-Dioxopiperidin-3-yl)-1-oxoisoindolin-5-yl)methyl)-6-fluoro-2H-chromene-3-carboxamide], the percent GSPT1 degradation at 0.2 µM at GSPT1 protein was > 80%. Besides, the IC50 in the data set with KG-1 cells, with U937, in the data set on MOLM-13 and in the data set with MV4-11 was 10 to 100 nM in each case. In data set [1], the half-life is 4.67 h. Moreover, the microsomal CLint in data set [1] stood at 4.95 µL/min/mg.

With `O=C1CCC(N2Cc3cc(CNC(=O)C4CNc5ccccc5C4)ccc3C2=O)C(=O)N1` (stereo not shown) [Compound C-1, N-((2-(2,6-Dioxopiperidin-3-yl)-1-oxoisoindolin-5-yl)methyl)-1,2,3,4-tetrahydroquinoline-3-carboxamide], the percent GSPT1 degradation at 0.2 µM at GSPT1 protein is > 80%. The IC50 in the data set on KG-1 cells lay in the range of 1 to 10 nM; in the data set with U937, 10 to 100 nM; with MOLM-13 it was 10 to 100 nM; in the data set on MV4-11, 10 to 100 nM.

In turn, `C#Cc1ccc2c(c1)C=C(C(=O)NCc1ccc3c(c1)CN(C1CCC(=O)NC1=O)C3=O)CO2` (stereo not shown) [Compound A-15, N-((2-(2,6-Dioxopiperidin-3-yl)-1-oxoisoindolin-5-yl)methyl)-6-ethynyl-2H-chromene-3-carboxamide] came in with a percent GSPT1 degradation at 0.2 µM at GSPT1 protein of 50 to 80%. The compound also registered an IC50 in the data set on KG-1 cells of 100 to 1000 nM.

In turn, `O=C1CCC(N2Cc3cc(CNC(=O)C4=Cc5ccc(F)cc5OC4)ccc3C2=O)C(=O)N1` (stereo not shown) [Compound A-4, N-((2-(2,6-Dioxopiperidin-3-yl)-1-oxoisoindolin-5-yl)methyl)-7-fluoro-2H-chromene-3-carboxamide] yielded a percent GSPT1 degradation at 0.2 µM at GSPT1 protein of 50 to 80%. Besides, the IC50 in the data set on KG-1 cells was in the range of 10 to 100 nM.

On to `O=C1CCC(N2Cc3cc(CNC(=O)C4=Cc5c(F)cc(F)cc5OC4)ccc3C2=O)C(=O)N1` (stereo not shown) [Compound A-34, N-((2-(2,6-Dioxopiperidin-3-yl)-1-oxoisoindolin-5-yl)methyl)-5,7-difluoro-2H-chromene-3-carboxamide], for which the percent GSPT1 degradation at 0.2 µM on GSPT1 protein is > 80%. The IC50 with KG-1 cells lay within 1 to 10 nM.

The compound `COc1ccc2c(c1)C=C(C(=O)NCc1ccc3c(c1)CN(C1CCC(=O)NC1=O)C3=O)CO2` (stereo not shown) [Compound A-8, N-((2-(2,6-Dioxopiperidin-3-yl)-1-oxoisoindolin-5-yl)methyl)-6-methoxy-2H-chromene-3-carboxamide] had a percent GSPT1 degradation at 0.2 µM on GSPT1 protein of 50 to 80%. This compound displayed a concentration for half-maximal inhibition (IC50) with KG-1 cells of 10 to 100 nM.

`O=C1CCC(N2Cc3cc(CNC(=O)C4=Cc5cc(F)c(F)cc5OC4)ccc3C2=O)C(=O)N1` (stereo not shown) [Compound A-35, N-((2-(2,6-Dioxopiperidin-3-yl)-1-oxoisoindolin-5-yl)methyl)-6,7-difluoro-2H-chromene-3-carboxamide]: the percent GSPT1 degradation at GSPT1 protein (KG-1, 4 h, read-out: GSPT1 degradation) was > 80%. Besides, in the data set on KG-1 cells, the IC50 was in the range of 10 to 100 nM.

For the compound `Cc1ccc2c(c1)C=C(C(=O)NCc1ccc3c(c1)CN(C1CCC(=O)NC1=O)C3=O)CO2` (stereo not shown) [Compound A-7, N-((2-(2,6-Dioxopiperidin-3-yl)-1-oxoisoindolin-5-yl)methyl)-6-methyl-2H-chromene-3-carboxamide], the percent GSPT1 degradation at 0.2 µM at GSPT1 protein is > 80%. The same compound returned an IC50 in the data set with KG-1 cells of 1 to 10 nM.

As for `O=C1CCC(N2Cc3cc(CNC(=O)C4=Cc5cc(-c6ccccc6)ccc5OC4)ccc3C2=O)C(=O)N1` (stereo not shown) [Compound A-17, N-((2-(2,6-Dioxopiperidin-3-yl)-1-oxoisoindolin-5-yl)methyl)-6-phenyl-2H-chromene-3-carboxamide], the percent GSPT1 degradation at 0.2 µM at GSPT1 protein fell in the range of 50 to 80%. Also, the IC50 in the data set with KG-1 cells fell in the range of 100 to 1000 nM.

Turning to `N#Cc1ccc2c(c1)C=C(C(=O)NCc1ccc3c(c1)CN(C1CCC(=O)NC1=O)C3=O)CO2` (stereo not shown) [Compound A-11, N-((2-(2,6-Dioxopiperidin-3-yl)-1-oxoisoindolin-5-yl)methyl)-6-cyano-2H-chromene-3-carboxamide], the percent GSPT1 degradation at 0.2 µM on GSPT1 protein is > 80%. Also, the IC50 in the data set with KG-1 cells lay in the range of 10 to 100 nM.
